This is an account of results in patent US12178846B2, “Methods of using gap junctions as therapeutic targets for the treatment of degenerative disorders of the retina” (The Research Foundation for The State University of New York, priority 2014, dated 2024).

Each structure is given as a SMILES string.

The data set has as its system cells in the GCL of mouse retinas. The experiment in a line: NMDA-induced excitotoxic cell death in the GCL of retina-eyecups. The class given is cell-based. The procedure:
All animal procedures were in compliance with the NIH Guide for the Care and Use of Laboratory Animals and approved by the Institutional Animal Care and Use Committees at SUNY College of Optometry. Experiments were performed on retinas of wild type (WT), connexin knockout (KO) mice (Cx36^−/−, Cx45^−/−, and Cx36^−/−/45^−/− dKO), and their heterozygous (Het) littermates. The methods used to impale and label neurons have been described previously (Hu et al., J Neurosci 23:[…] (2003); Völgyi et al., Journal of Comparative Neurology 512:664-687 (2009)). Briefly, flattened retina-eyecups were placed in a superfusion chamber, which was mounted on the stage of a BX51WI light microscope (Olympus) within a light-tight Faraday cage. […] The retina-eyecups were superfused with a modified, oxygenated Ames medium maintained at 35° C.
Various methods were employed to produce cell death. (1) Single cell apoptosis: CytC was injected into individual RGCs or Müller cells for 15 minutes after which retinas were incubated for 4 hours in oxygenated Ames medium before fixation. After streptavidin histology, apoptotic cells were detected with an anti-active caspase 3 antibody or with Terminal deoxynucleotidyl transferase dUTP nick end labeling (TUNEL) staining. (2) Excitotoxicity: To assess the contribution of GJs to cell death within populations of RGCs and amacrine cells we conducted parallel experiments in which retinas were preincubated for 20 minutes in normal Ames medium or in one containing the GJ blockers meclofenamic acid (MFA; 50 μM) or 18-beta-glycyrrhetinic acid (18Beta-GA; 25 μM). Both control and drug-treated retinas were then exposed for 1 hour to NMDA (100-300 μM) to induce excitotoxicity followed by 4 hours in the control Ames solution. (3) Retinal ischemia: Transient in vivo retinal ischemia was induced by introducing into the anterior chamber a 33-gauge needle attached to a saline-filled reservoir (0.9% sodium chloride) that was raised above the animal so as to increase intraocular pressure (IOP) to a level […]. MFA (2 μl, 500 μM) was administered intravitreally either 30 minutes before or 3 and 24 hours following the ischemic insult. […]
Apoptotic and necrotic cell death were assessed by cell counts following: (1) staining with Live/Death Viability Assay (calcein AM/ethidium homodimer (EthD) (Invitrogen); (2) TUNEL, or, (3) labeling for activated caspase 3. For population studies, dead cells were counted manually within 500×500 μm areas (5 areas per retina) from micrographs of whole-mounts using images acquired by confocal microscope. Nuclear cell counts were made per unit length (500 μm) of frozen retinal cross-sections labeled with propidium iodide (2 μg/ml).

In the case of `CC1(C)[C@@H](O)CC[C@]2(C)[C@H]3C(=O)C=C4[C@@H]5C[C@@](C)(C(=O)O)CC[C@]5(C)CC[C@@]4(C)[C@]3(C)CC[C@@H]12` [18Beta-GA, 18-Beta-glycyrrhetinic acid], the “cell viability, blocker alone” value (control experiments, 18Beta-GA or MFA alone without NMDA, p>0.1) is given as “did not affect cell viability”. The “cell death in the GCL induced by excitotoxicity” value (retinas preincubated in 18Beta-GA 25 μM or MFA 50 μM, then NMDA 100-300 μM 1 h, vs NMDA alone, p<0.001) is “significantly reduced”.
